From patent US8916681B2, “Compound, use and method” (Medical Research Council, priority 2007, dated 2014)
Entries after “also recorded” stand apart in the source; their conditions may differ. Non-standard residues stand in square brackets, D forms with d. Residues, ends and D or L forms follow the SMILES beside them.

Test system: plasma LH, GH, prolactin and cortisol
Assay: Central (third ventricle) infusion in OVX ewes: plasma LH, GH, prolactin, cortisol
Format: in vivo, sheep
Source text: Adult Corriedale ewes were housed under natural lighting and were bilaterally ovariectomized (OVX) at least 1 month before any experimental manipulations. Permanent indwelling third cerebral ventricular (3V) cannulae were implanted in a subsequent surgical procedure as previously described (Barker-Gibb et al., 1995, J. Endocrinol., 147:565-79). Approximately two weeks after 3V surgery, one external jugular vein was cannulated for blood sampling and animals housed in single pens; cannulae were kept patent with heparinized saline.
Ewes were assigned to two treatment groups (n=4 per group); kisspeptin antagonist (diluted in artificial cerebrospinal fluid, aCSF; 150 mM NaCl, 1.2 mM CaCl2, 1 mM MgCl2, 2.8 mM KCl) or control (aCSF only). The following day, infusion lines were connected to 3V cannulae and blood sampling commenced at 07.00 h. Samples were collected every 10 min. After 3 h of sampling, kisspeptin antagonist (or control) was infused into the 3V at a dose of 40 μg/h for 1 h, with an initial loading dose of 10 μg. Both kisspeptin antagonist and vehicle were infused at 200 μl/h for 1 h using Graseby® MS16A infusion pumps (Smiths Medical Australasia Pty. Ltd., Gold Coast, Qld, Australia). After infusion, 3V lines remained in place and blood sampling continued for a further 2 h (total of 6 h). Plasma was harvested immediately from samples, and frozen at −20 C until assayed.
Plasma LH concentrations were measured in duplicate, using the method of Lee et al. (1976, J. Reprod. Fertil., 46:1-6) with NIH-oLH-518 as standard. Assay results were calculated using the program of Burger et al. (1972, J. Lab. Clin. Med., 80:302-12). Assay sensitivity was 0.08 ng/ml and the intra-assay coefficient of variation was less than 10% over the range of 0.3-12.8 ng/ml. A pulse analysis of the LH data was performed based on the method described for GnRH (Clarke, 1993, Endocrinology, 133:1624-32).
All experimental procedures were conducted under a protocol approved by the Monash School of Biomedical Sciences Animal Ethics Committee. Adult Corriedale ewes were housed under natural lighting and were bilaterally ovariectomized (OVX) at least 1 month before any experimental manipulations. Permanent indwelling third cerebral ventricular (3V) cannulae were implanted in a subsequent surgical procedure as previously described (49). Approximately 2 weeks after 3V surgery, one external jugular vein was cannulated for blood sampling and animals housed in single pens; cannulae were kept patent with heparinized saline. Ewes were assigned to two treatment groups (4/group); peptide 234 (diluted in artificial cerebrospinal fluid, aCSF; 150 mM NaCl, 1.2 mM CaCl2, 1 mM MgCl2, 2.8 mM KCl) or control (aCSF only). The following day, infusion lines were connected to 3V cannulae and blood sampling commenced at 07.00 h. Samples were collected every 10 min. After 3 h of sampling, peptide 234 (or control) was infused into the 3V at a dose of 40 μg/h for 1 h, with an initial loading dose of 10 μg. Both peptide 234 and vehicle were infused at 200 μl/h using Graseby® MS16A infusion pumps (Smith Medical Australasia Pty. Ltd.). After infusion, 3V lines remained in place and blood sampling continued for a further 2 h (total of 6 h). Plasma was harvested immediately from samples, and frozen at −20 C until assayed.
Plasma LH concentrations were measured in duplicate, with NIH-oLH-518 as standard (49). Assay sensitivity was 0.1 ng/ml and the intra-assay coefficient of variation was less than 10% over the range of 0.3-12.8 ng/ml. Pulse analysis of the plasma LH data was as previously described (36). Plasma samples were assayed for GH in duplicate using the standard NIDDK-oGH-I-4 and NIDDK-anti-oGH-2 antiserum (50). The assay sensitivity was 1 ng/ml, the intra-assay CV was less than 10% between 4 and 51 ng/ml and the inter-assay CV was 20%.
Plasma prolactin concentrations were measured in duplicate using Sigma, Lot 114F-0558, NOL-7135 as standard (50). […]

[1] = before, during or after infusion

Compound: CC(=O)N[C@H](C)C(=O)N[C@@H](CC(N)=O)C(=O)N[C@@H](Cc1c[nH]c2ccccc12)C(=O)N[C@@H](CC(N)=O)C(=O)NCC(=O)N[C@@H](Cc1ccccc1)C(=O)NCC(=O)N[C@H](Cc1c[nH]c2ccccc12)C(=O)N[C@@H](CCCNC(=N)N)C(=O)N[C@@H](Cc1ccccc1)C(N)=O [Peptide 234] (Ac-[dA]NWNGFG[dW]RF-NH2)
- Mean GH (After Infusion): 9.11 ± 1.44 ng/mL
- Mean LH (After Infusion): significant reduction; also recorded: reduced
- LH pulse amplitude (After Infusion (240-360 min), listed as Peptide-234): 0.68 ± 0.05 ng/mL
- LH pulse amplitude (After Infusion (240-360 min), listed as peptide 234): significant reduction; also recorded: diminished amplitude; also recorded: markedly reduced
- Mean GH (Before Infusion): 5.11 ± 1.48 ng/mL
- Mean LH (Before Infusion): 2.73 ± 0.43 ng/mL
- LH pulse amplitude (Before Infusion (0-180 min)): 1.63 ± 0.28 ng/mL
- Mean LH (During Infusion): 2.89 ± 0.55 ng/mL
- LH pulse amplitude (During Infusion (180-240 min), 40 μg/h, loading dose 10 μg): 1.82 ± 0.52 ng/mL
- Mean GH (During Infusion, listed as Peptide-234): 14.07 ± 2.78 ng/mL
- Mean GH (During Infusion, listed as peptide 234): significant increase; also recorded: increased; also recorded: appeared to increase
- number of LH secretory pulses (after ventricular administration): markedly reduced
- cortisol concentrations [1]: no effect
- prolactin concentrations [1]: no effect
